# Measurements as given in patent US9745337B2, “Complex compounds of germanium, methods for producing same, and drugs” (priority 2012, dated 2017).
# Read-outs that look alike come from different tables or passages of the source.
# Tests used:
# [1] = test system: HSV-1; details: combination of D609 and acyclovir; cited from earlier work
# [2] = test system: herpes simplex virus (HSV-1); details: cited from earlier work
# [3] = test system: Varicella-Zoster virus; details: S-acetyl glutathione 0.35 mg/mL with three acyclovir concentrations, strongest at 0.9 mcg/mL acyclovir; cited from earlier work
# [4] = octanol-water partition coefficient log P; assay type: physicochemical; details: n-octanol and water
# From the text: A criterion that can serve as a measure of the absorption of the solute through the wall of the small intestine is permeability, i.e., the fraction of the substance permeating through the intestinal wall. The physicochemical property of a molecule that makes the greatest contribution to permeability is liphophilicity. A measure of lipophilicity to be used in indirect assessment of intestinal permeability is the octanol-water partition coefficient, log P, which is the logarithm of the ratio of concentrations of an unionized substance in the system of two immiscible liquids (n-octanol and water). […]
# [5] = cited from earlier work
# [6] = in vivo; cited from earlier work
# [7] = test system: HSV-1; details: Vero cells, cited from earlier work
# [8] = test system: HSV-2; details: Vero cells, cited from earlier work
# [9] = test system: herpes simplex viruses type 1 (HSV-1); details: cited from earlier work
# [10] = in the presence of low, inefficient concentrations of xanthogenate; cited from earlier work
# [11] = physchem
# Experimental: (§1) For this purpose, we studied the solubilities of these compounds at various pH values that correspond to the gastrointestinal fluids (for the intestinal fluid: pH is 1.2; for the duodenal fluid: pH 4.4; and for the small intestine fluid: pH 6.8).
# (§2) One biopharmaceutical solubility value which allows describing a therapeutic drug (TD) as a compound having “high” or “low” solubility, is the dose/solubility ratio (D/S). The dose/solubility ratio is determined as follows: maximal dose (D) (mg)/water solubility (S) (mg/mL).
# (§3) Importantly, biopharmaceutical solubility is not a constant value for a given therapeutic drug (TD); rather, it depends on the maximal registered dosage of an immediate-release TD intended for systemic effects.
# (§4) One more biopharmaceutical value is the solubility in biorelevant media. These are dissolution media such that approach the human body fluids (intestinal fluid and gastric fluid) as closely as possible in terms of chemical composition and in terms of physicochemical properties (pH, osmomolality, buffer capacity, and surface tension). The simulation of physiological conditions is provided by introducing surfactants (lecithin and sodium taurocholate) into these media. There are two major types of biorelevant media, namely: an artificial intestinal fluid in an empty stomach (fasted state simulated intestinal fluid (FaSSIF)) and after eating (fed state simulated intestinal fluid (FeSSIF)).
# [12] = biopharmaceutical and biorelevant solubility (pH media, FaSSIF, FeSSIF)
# Experimental: as §1, §2, §3, §4
# [13] = reference for high intestinal permeability; cited from earlier work
# [14] = test system: HSV-1 “L2/R” virus; assay type: cell-based, herpes simplex virus type I; details: concentrations of 500 mcg/mL and 250 mcg/mL, VERO
# Experimental: The criteria used to evaluate the antiviral activity were: the ability to prevent the development of a virus-induced cytopathic effect and the ability to inhibit reproduction of the virus in the cell culture. Test samples were inserted into the nutrient medium 1 hour after the culture was infected with a certain dose of the virus (the therapeutic scheme). The antiviral activity of the samples and virus-induced cytopathic effects in the cell culture were monitored every day using light microscopy as the degree of morphological alteration of a cell monolayer. The endpoint was on the 4th day of contact of the cells with the infectious material, after a well-defined (100%) cytopathic effect appeared in control samples (positive control). The presence of antiviral activity in samples of organogermanium compounds according to the invention was ascertained as the difference between the viral titers measured in the experiment and in the control.
smiles,measurement,setting,value
"S=C(S)OC1CC2CC1C1CCCC21 (centres unmarked) [D609, tricyclodecan-9-yl-xanthogenate]",survival of animals infected with HSV-1,[1],survival of all animals
CC(=O)SC[C@H](NC(=O)CC[C@H](N)C(=O)O)C(=O)NCC(=O)O [S-acetyl glutathione],effect of combination with acyclovir against HSV-1,[2]; S-acetyl glutathione combined with acyclovir,strong synergistic effect
same,concentration from which efficient against HSV-1,[2],≥ 0.35 mg/mL
same,effect of compositions with acyclovir against Varicella-Zoster virus,[3],noticeable synergistic effect
"Nc1nc2c(ncn2COCCO)c(=O)[nH]1 [acyclovir, 9-[(2-hydroxyethoxy)methyl] guanine]",logP,[4],-1.57
same,solubility in hydrophobic systems,[5],almost insoluble
same,bioavailability,[6],15-20%
same,effect of combination against HSV-1,[7]; acyclovir 0.04-0.4 mcg/mL with carbocyclic oxetanocin G 0.01-0.2 mcg/mL,synergistic effect
same,effect of combination against HSV-1,[7]; acyclovir 0.04-0.4 mcg/mL with oxetanocin G 0.4-5.4 mcg/mL,synergistic effect
same,effect of combination against HSV-2,[8]; acyclovir 0.1-3.4 mcg/mL with carbocyclic oxetanocin G 0.04-0.54 mcg/mL,synergistic effect
same,effect of combination against HSV-2,[8]; acyclovir 0.1-3.4 mcg/mL with oxetanocin G 0.4-4 mcg/mL,synergistic effect
same,concentration for 50% inhibition of the virus-induced cytopathic effect,[9]; acyclovir used alone,0.4 µg/mL
same,acyclovir concentration for 50% inhibition of the virus-induced cytopathic effect,[9]; combined with bis-netropsin 0.15 mcg/mL,0.15 µg/mL
same,acyclovir concentration for 50% inhibition of the virus-induced cytopathic effect,[9]; combined with netropsin 2.5 mcg/mL,0.075 µg/mL
same,increase of acyclovir activity in a cell culture,[10],fivefold
same,solubility,"[11]; FaSSIF (fasted state simulated intestinal fluid), fassif",1440 µg/mL
same,solubility,"[11]; FeSSIF (fed state simulated intestinal fluid), fessif",1380 µg/mL
same,solubility,"[11]; aqueous dissolution medium at pH 1.2, pH 1.2, simulated gastric fluid",3500 µg/mL
same,solubility,"[11]; aqueous dissolution medium at pH 4.5, pH 4.4, aqueous buffer",2600 µg/mL
same,Solubility (“high”/“low”),[12]; FaSSIF,“low”
same,Solubility (“high”/“low”),[12]; FeSSIF,“low”
same,Solubility (“high”/“low”),[12]; pH 1.2,"“high” (When D/S≦250 mL, the TD has “high” solubility in the relevant aqueous solution)"
same,Solubility (“high”/“low”),"[12]; pH 4.4-4.5 (4.4 for the tested compounds, 4.5 for acyclovir)",low and “low”
same,Solubility (“high”/“low”),[12]; pH 6.8,low and “low”
same,solubility,[12]; pH 6.8,2.4 mg/mL
"Nc1nc2c(ncn2COC(CO)CO)c(=O)[nH]1 [gancyclovir, 9-[(1,3-dihydroxy-2-propoxy)methyl]guanine]",bioavailability,[6],5%
same,reduction in gancyclovir concentration,[9]; combination with netropsin and bis-netropsin,fivefold
COCCc1ccc(OCC(O)CNC(C)C)cc1 (centres unmarked) [metoprolol],log P of reference substance,[13],1.72
"Nc1nc2c(ncn2CCC(CO)CO)c(=O)[nH]1 [pencyclovir, 9-[4-hydroxy-3-(hydroxymethyl)butyl]guanine]",water solubility,[5]; at 20° C.,1.74 mg/mL
same,bioavailability,[6],1.5%
"CC(C)[C@H](N)C(=O)OCCOCn1cnc2c(=O)[nH]c(N)nc21 [valacyclovir, 2-(guanin-9-ylmethoxy)ethyl L-valine ether]",reduction of the infectious activity of the HSV-1 “L2/R” virus,[14],1.5 log
"Nc1ncnc2c1ncn2[C@@H]1O[C@H](CO)[C@@H](O)[C@@H]1O [vidarabine, 9-β-D-arabinofuranosyl adenine]",water solubility (in words),[5],poorly soluble
